# Results taken from DBAASP.
# Tests used:
# Test in all cases: ≥ marks a high value that may be exact or a test limit, other limits are often not marked, values filed in µg/mL are converted to µM
# [1] = test system: Pseudomonas aeruginosa PA330
# Escherichia coli K-12 = test system: Escherichia coli K-12
# [2] = test system: Pseudomonas aeruginosa PAO1
# [3] = test system: Pseudomonas aeruginosa PA214
# [4] = test system: Pseudomonas aeruginosa DSM 1117
# [5] = test system: Staphylococcus aureus DSM 11729
# [6] = test system: Staphylococcus epidermidis DSM 28319
# [7] = test system: Acinetobacter baumannii ATCC 19606
# [8] = test system: Acinetobacter baumannii AL1851-ΔLpxA
# [9] = test system: Acinetobacter baumannii Al1852-ΔLpxD
# [10] = test system: Escherichia coli DSM 1103
# [11] = test system: Citrobacter freundii DSM 30029
# Shigella sonnei DSM 5570 = test system: Shigella sonnei DSM 5570
# [12] = test system: Klebsiella pneumoniae DSM 789
# [13] = test system: Salmonella enterica DSM 17058
# Escherichia coli = test system: Escherichia coli
# [14] = test system: Candida albicans ATCC 24433
# [15] = test system: Trichophyton rubrum ATCC 28189
# Staphylococcus aureus = test system: Staphylococcus aureus
# [16] = test system: Candida parapsilosis ATCC 22019
# [17] = test system: Pseudomonas aeruginosa NBRC 13275
# [18] = test system: Staphylococcus aureus NBRC 13276
# [19] = test system: Staphylococcus epidermidis NBRC 12298
# [20] = test system: Escherichia coli DH5alpha
# [21] = test system: Escherichia coli ATCC 25922
# [22] = test system: Aeromonas hydrophila ATCC 35654
# [23] = test system: Staphylococcus aureus ATCC 25923
# [24] = test system: Micrococcus luteus ATCC 49732
# Micrococcus luteus A270 = test system: Micrococcus luteus A270
# [25] = test system: Serratia marcescens ATCC 4112
# [26] = test system: Bacillus subtilis ATCC 6633
# [27] = test system: Pseudomonas aeruginosa NCIB 10421
# Escherichia coli SBS 363 = test system: Escherichia coli SBS 363
# [28] = test system: Bacillus megaterium ATCC 10778
# Candida albicans MDM8 = test system: Candida albicans MDM8
# [29] = test system: Candida tropicalis IOC 4560
# [30] = test system: Staphylococcus aureus ATCC 29213
# [31] = test system: Enterobacter cloacae beta-12
# [32] = test system: Staphylococcus aureus USA 300
# Escherichia coli E423-17 = test system: Escherichia coli E423-17
# Escherichia coli E416-17 = test system: Escherichia coli E416-17
# [33] = test system: Staphylococcus aureus M838-17
structure (smiles),measurement,setting,value
CC(C)C[C@H](NC(=O)[C@H](C)NC(=O)[C@H](CCCCN)NC(=O)[C@H](Cc1ccccc1)NC(=O)[C@H](CC(C)C)NC(=O)[C@H](CCCCN)NC(=O)[C@H](C)NC(=O)[C@H](Cc1c[nH]c2ccccc12)NC(=O)[C@H](C)NC(=O)[C@H](CCCCN)NC(=O)[C@H](CC(C)C)NC(=O)[C@H](Cc1ccccc1)NC(=O)[C@H](CCCCN)NC(=O)[C@H](CCCCN)NC(=O)[C@H](CC(C)C)NC(=O)[C@H](C)NC(=O)[C@@H](N)CCCCN)C(N)=O [KALKKFLKAWAKLFKAL],MIC,[1],6.3 µM
same,MIC,Escherichia coli K-12,1.6 µM
same,MIC,[2],3.1 µM
same,MIC,[3],3.1 µM
CC[C@H](C)[C@H](NC(=O)[C@H](CC(=O)O)NC(=O)[C@H](Cc1c[nH]c2ccccc12)NC(=O)[C@H](CCCCN)NC(=O)[C@@H]1CCCN1C(=O)[C@H](CC(C)C)NC(=O)[C@H](CCSC)NC(=O)[C@H](Cc1ccc(O)cc1)NC(=O)[C@H](CC(C)C)NC(=O)[C@H](CC(N)=O)NC(=O)[C@@H](NC(=O)CN)[C@@H](C)O)C(=O)N1CCC[C@H]1C(N)=O [GTNLYMLPKWDIP],MIC,[4],1 µM
same,MIC,[5],16 µM
same,MIC,[6],0.5 µM
same,MIC,[7],32 µM
same,MIC,[8],16 µM
same,MIC,[9],≥ 32 µM
same,MIC,[10],8 µM
same,MIC,[11],4 µM
same,MIC,Shigella sonnei DSM 5570,2 µM
same,MIC,[12],≥ 32 µM
same,MIC,[13],16 µM
CC[C@H](C)[C@H](NC(=O)[C@H](CCCCN)NC(=O)[C@H](CCC(=O)O)NC(=O)[C@H](CO)NC(=O)[C@H](CCCN=C(N)N)NC(=O)[C@@H](N)CO)C(=O)N[C@H](C(=O)N[C@@H](Cc1cnc[nH]1)C(=O)N[C@@H](CCC(N)=O)C(=O)N[C@@H](CC(C)C)C(=O)N[C@@H](Cc1ccccc1)C(N)=O)C(C)C [SRSEKIVHQLF],MIC,Escherichia coli,> 298 µM
same,MIC,[14],≥ 298 µM
same,MIC,[15],≥ 298 µM
same,MIC,Staphylococcus aureus,> 298 µM
same,MIC,[16],≥ 298 µM
CC[C@H](C)[C@H](NC(=O)CN)C(=O)N[C@@H](CCCCN)C(=O)N[C@@H](CCCCN)C(=O)N[C@@H](Cc1ccccc1)C(=O)N[C@@H](CC(C)C)C(=O)N[C@@H](CCCCN)C(=O)N[C@@H](CO)C(=O)N[C@@H](C)C(=O)N[C@@H](CCCCN)C(=O)N[C@@H](CCCCN)C(=O)N[C@@H](Cc1ccccc1)C(=O)N[C@H](C(=O)N[C@@H](CCCCN)C(=O)N[C@@H](C)C(=O)N[C@@H](Cc1ccccc1)C(=O)N[C@@H](CCCCN)C(N)=O)C(C)C [GIKKFLKSAKKFVKAFK],MIC,[17],1.56 µM
same,MIC,[18],6.25 µM
same,MIC,[19],3.12 µM
same,MIC,[20],3.12 µM
CC[C@H](C)[C@H](NC(=O)[C@H](CC(C)C)NC(=O)[C@H](CCC(N)=O)NC(=O)[C@@H](NC(=O)[C@H](CCCN=C(N)N)NC(=O)[C@@H](NC(=O)[C@H](CS)NC(=O)[C@H](CCCCN)NC(=O)[C@@H](N)CCCN=C(N)N)C(C)C)C(C)C)C(=O)N[C@@H](CCCCN)C(=O)N[C@@H](CC(N)=O)C(=O)NCC(=O)N[C@@H](CCCCN)C(=O)N[C@@H](CCCCN)C(=O)N[C@H](C(=O)N[C@H](C(=O)N[C@@H](C)C(=O)N[C@@H](Cc1ccccc1)C(N)=O)[C@@H](C)O)[C@@H](C)CC [RKCVRVQLIKNGKKITAF],MIC,[21],8.4 µM
same,MIC,[22],8.4 µM
same,MIC,[23],7.2 µM
same,MIC,[24],7.2 µM
CC[C@H](C)[C@H](NC(=O)CNC(=O)[C@H](CCC(=O)O)NC(=O)[C@H](Cc1c[nH]c2ccccc12)NC(=O)[C@@H](NC(=O)[C@H](CCCCN)NC(=O)CNC(=O)[C@H](CC(C)C)NC(=O)[C@@H](N)Cc1c[nH]c2ccccc12)[C@@H](C)CC)C(=O)N[C@@H](CCCCN)C(=O)N[C@@H](CO)C(=O)N[C@@H](CC(C)C)C(=O)N[C@@H](Cc1ccccc1)C(N)=O [WLGKIWEGIKSLF],MIC,Micrococcus luteus A270,0.78 µM
same,MIC,[25],0.78 µM
same,MIC,[26],0.78 µM
same,MIC,[27],12.5 µM
same,MIC,Escherichia coli SBS 363,1.56 µM
same,MIC,[28],0.78 µM
same,MIC,Candida albicans MDM8,3.13 µM
same,MIC,[29],1.56 µM
same,MIC,[30],1.6 µM
same,MIC,[31],12.5 µM
CC(C)C[C@H](NC(=O)[C@H](Cc1c[nH]c2ccccc12)NC(=O)[C@H](Cc1c[nH]c2ccccc12)NC(=O)[C@@H](N)Cc1c[nH]c2ccccc12)C(=O)N[C@@H](CCCN=C(N)N)C(=O)N[C@@H](CCCN=C(N)N)C(=O)N[C@@H](CCCN=C(N)N)C(=O)N[C@@H](Cc1c[nH]c2ccccc12)C(=O)O [WWWLRRRW],MIC,[21],16 µM
same,MIC,[32],4 µM
same,MIC,Escherichia coli K-12,16 µM
same,MIC,Escherichia coli E423-17,≥ 32 µM
same,MIC,Escherichia coli E416-17,16 µM
same,MIC,[33],4 µM
